Patent US11780845B2 (Relay Therapeutics, Inc., priority 2019, dated 2023)

What was measured:
SNU-16 = assay: Cell SNU-16 assay; format: cell-based; settings: Homo sapiens, SNU-16, SNU-16 cells
FGFR2 = FGFR2 (Homo sapiens (Human), UniProt P21802); assay: Biochemical FGFR2 Caliper assay
Sequence of FGFR2 (P21802 22-821): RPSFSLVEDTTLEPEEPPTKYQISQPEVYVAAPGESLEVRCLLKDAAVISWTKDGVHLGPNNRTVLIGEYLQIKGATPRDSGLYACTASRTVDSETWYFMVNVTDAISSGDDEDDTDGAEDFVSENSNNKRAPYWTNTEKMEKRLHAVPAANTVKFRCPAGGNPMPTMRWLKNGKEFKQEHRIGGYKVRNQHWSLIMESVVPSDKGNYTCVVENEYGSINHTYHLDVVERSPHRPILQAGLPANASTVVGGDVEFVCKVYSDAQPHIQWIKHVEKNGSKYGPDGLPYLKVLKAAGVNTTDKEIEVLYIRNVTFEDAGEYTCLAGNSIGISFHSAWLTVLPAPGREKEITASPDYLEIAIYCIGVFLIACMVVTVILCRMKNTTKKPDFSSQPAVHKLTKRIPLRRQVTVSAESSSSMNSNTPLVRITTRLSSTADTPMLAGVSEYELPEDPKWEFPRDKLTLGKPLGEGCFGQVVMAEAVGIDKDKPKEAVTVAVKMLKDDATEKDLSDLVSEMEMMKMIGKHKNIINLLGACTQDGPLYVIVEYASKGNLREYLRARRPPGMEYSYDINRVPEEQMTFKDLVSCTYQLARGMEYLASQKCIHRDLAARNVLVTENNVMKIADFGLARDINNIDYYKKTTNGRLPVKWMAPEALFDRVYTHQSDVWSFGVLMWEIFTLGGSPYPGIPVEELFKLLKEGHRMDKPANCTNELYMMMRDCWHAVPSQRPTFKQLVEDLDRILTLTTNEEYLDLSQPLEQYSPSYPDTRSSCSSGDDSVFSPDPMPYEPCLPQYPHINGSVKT

| SMILES | IC50 (SNU-16) [nM] | IC50 (FGFR2) [nM] |
| --- | --- | --- |
| C=CC(=O)N1C2COCC1C(c1c(-c3ccc(Oc4cccc(C)n4)cc3)c3c(N)ncnc3n1C)C2 (stereo not shown) [Example 812] | ≤ 100 | < 100 |
| C=C(C)C(=O)Nc1ccc(-c2[nH]c3ncnc(N)c3c2-c2ccc(Oc3ncc(F)cn3)c(F)c2)cc1 [Example 815] | 1000 to 100000 | 250 to 1000 |
| C=C(C)C(=O)Nc1ccc(-c2cn3ncnc(N)c3c2-c2ccc(C(=O)N3CCCCC3)cc2)cc1 [Example 821] | 1000 to 100000 | 1000 to 100000 |
| C=C(C)C(=O)Nc1ccc(-c2cn3ncnc(N)c3c2-c2ccc(Oc3ncc(F)cn3)c(F)c2)cc1 [Example 827] | 1000 to 100000 | 1000 to 100000 |
| C=CC(=O)N1CCC(c2cn3ncnc(N)c3c2-c2ccc(Oc3cccc(C)n3)cc2)C1 (stereo not shown) [Example 828] | 250 to 1000 | 1000 to 100000 |
| C=C(C)C(=O)Nc1ccc(-c2c(-c3ccc(C(=O)NCC(F)(F)F)cc3)c3c(N)ncnn3c2CO)cc1 [Example 832] | 1000 to 100000 | 1000 to 100000 |
| C=CC(=O)N1CCC(O)(c2c(-c3ccc(Oc4cccc(C)n4)cc3)c3c(N)ncnc3n2C)C1 (stereo not shown) [Example 833] | 250 to 1000 | 100 to 250 |
| C=C(C)C(=O)Nc1ccc(-c2cn3ncnc(N)c3c2-c2ccc(S(=O)(=O)NC3CCC3)cc2)cc1 [Example 834] | 250 to 1000 | 250 to 1000 |
| C=CC(=O)Nc1ccc(-c2c(-c3ccc(Oc4cccc(C)n4)cc3)c3c(N)ncnn3c2CO)cc1 [Example 835] | 1000 to 100000 | 1000 to 100000 |
| C=C(C)C(=O)Nc1ccc(-c2cn3ncnc(N)c3c2-c2ccc(C(=O)NC3CCOC3)cc2)cc1 (stereo not shown) [Example 841] | 250 to 1000 | 250 to 1000 |
| C=C(C)C(=O)Nc1ccc(-c2cn3ncnc(N)c3c2-c2ccc(C(=O)NCC(C)(C)O)cc2)cc1 [Example 842] | 1000 to 100000 | 250 to 1000 |
| C=C(C)C(=O)Nc1ccc(-c2cn3ncnc(N)c3c2C2=CCC(C(=O)N(C)C)CC2)cc1 (stereo not shown) [Example 843] | 250 to 1000 | 250 to 1000 |
| C=CC(=O)N1CCC(c2c(-c3ccc(Oc4cccc(C)n4)cc3)c3c(N)ncnc3n2C)C1(C)C (stereo not shown) [Example 844] | 1000 to 100000 | 1000 to 100000 |
| C=CC(=O)N1CCC(n2cc(-c3c(-c4ccc(C(=O)NC5CCOC5)cc4)c4c(N)ncnc4n3C)cn2)CC1 (stereo not shown) [Example 845] | 250 to 1000 | 250 to 1000 |
| C=C(C)C(=O)Nc1ccc(-c2c(-c3ccc(C(=O)N4CCCCC4)cc3)c3c(N)ncnn3c2CO)cc1 [Example 846] | 1000 to 100000 | < 100 |
| C=CC(=O)N1CC(c2c(-c3ccc(Oc4cccc(C)n4)cc3)c3c(N)ncnc3n2C)C[C@H]1C (stereo partly shown) [Example 847] | 250 to 1000 | 250 to 1000 |
| C=CC(=O)N1CCC(n2cc(-c3c(-c4ccc(C(=O)N(C)Cc5nc(C)no5)cc4)c4c(N)ncnc4n3C)cn2)CC1 [Example 849] | 250 to 1000 | 100 to 250 |
| C=CC(=O)N1CCC(N)(c2c(-c3ccc(Oc4cccc(C)n4)cc3)c3c(N)ncnc3n2C)C1 (stereo not shown) [Example 850] | 1000 to 100000 | 1000 to 100000 |
| C=CC(=O)N1CCC(n2cc(-c3c(-c4ccc(C(=O)NCC(C)(C)OC)cc4)c4c(N)ncnc4n3C)cn2)CC1 [Example 851] | 1000 to 100000 | 1000 to 100000 |
| C=C(C)C(=O)Nc1ccc(-c2cn3ncnc(N)c3c2-c2ccc(C(=O)NCC(C)(C)OC)cc2)cc1 [Example 852] | 1000 to 100000 | 250 to 1000 |

Second part, the compound after the results:

| IC50 (SNU-16) [nM] | IC50 (FGFR2) [nM] | SMILES |
| --- | --- | --- |
| 100 to 250 | 100 to 250 | C=C(C)C(=O)Nc1ccc(-c2c(-c3ccc(Oc4cccc(C)n4)cc3)c3c(N)ncnn3c2CO)cc1 [Example 808] |
| ≤ 100 | < 100 | C=CC(=O)NC1CCC(c2c(-c3ccc(Oc4cccc(C)n4)cc3)c3c(N)ncnc3n2C)C1 (stereo not shown) [Example 810] |
| 250 to 1000 | 100 to 250 | C=CC(=O)N1CCC(c2c(-c3ccc(-n4cc(C)cn4)cc3)c3c(N)ncnc3n2C)C1 (stereo not shown) [Example 811] |
| 250 to 1000 | 250 to 1000 | C=CC(=O)N1CC(F)C(c2c(-c3ccc(Oc4cccc(C)n4)cc3)c3c(N)ncnc3n2C)C1 (stereo not shown) [Example 813] |
| ≤ 100 | < 100 | C=CC(=O)N1CC(CO)C(c2c(-c3ccc(Oc4cccc(C)n4)cc3)c3c(N)ncnc3n2C)C1 (stereo not shown) [Example 814] |
| 100 to 250 | 250 to 1000 | C=CC(=O)N(C)C1CCC(c2c(-c3ccc(Oc4cccc(C)n4)cc3)c3c(N)ncnc3n2C)C1 (stereo not shown) [Example 816] |
| 100 to 250 | 100 to 250 | C=CC(=O)N1CCC(c2c(-c3cnn(-c4ccccc4C)c3)c3c(N)ncnc3n2C)C1 (stereo not shown) [Example 817] |
| 250 to 1000 | 250 to 1000 | C=C(C)C(=O)Nc1ccc(-c2[nH]c3ncnc(N)c3c2-c2ccc(S(=O)(=O)C3CCCC3)cc2)cc1 [Example 818] |
| 250 to 1000 | 250 to 1000 | C=CC(=O)N1CC(c2c(-c3ccc(Oc4cccc(C)n4)cc3)c3c(N)ncnc3n2C)C[C@@H]1CO (stereo partly shown) [Example 819] |
| ≤ 100 | < 100 | C=C(C)C(=O)Nc1ccc(-c2c(-c3ccc(Oc4cccc(C)n4)cc3)c3ncncc3n2C)cc1 [Example 820] |
| 250 to 1000 | 250 to 1000 | C=CC(=O)Nc1ccc(-c2[nH]c3ncnc(N)c3c2-c2ccc(Oc3ccn(C)n3)cc2)cc1 [Example 822] |
| 250 to 1000 | 100 to 250 | C=C(C)C(=O)Nc1ccc(-c2cn3ncnc(N)c3c2-c2ccc(C(=O)NCC(F)(F)F)cc2)cc1 [Example 823] |
| 250 to 1000 | 100 to 250 | C=C(C)C(=O)Nc1ccc(-c2c(-c3ccc(Oc4cccc(C)n4)cc3)c3c(N)ncnn3c2C#N)cc1 [Example 824] |
| ≤ 100 | 100 to 250 | C=C(C)C(=O)Nc1ccc(-c2cn3ncnc(N)c3c2-c2ccc(C(=O)N3CCCC3)cc2)cc1 [Example 825] |
| 250 to 1000 | 250 to 1000 | C=C(C)C(=O)Nc1ccc(-c2cn3ncnc(N)c3c2-c2ccc(S(=O)(=O)N3CCCC3)cc2)cc1 [Example 826] |
| ≤ 100 | < 100 | C=CC(=O)Nc1ccc(-c2cn3ncnc(N)c3c2-c2ccc(Oc3cccc(C)n3)cc2)cc1 [Example 829] |
| ≤ 100 | < 100 | C=C(C)C(=O)Nc1ccc(-c2cn3ncnc(N)c3c2-c2ccc(C(=O)NC3CCC3)cc2)cc1 [Example 830] |
| 100 to 250 | < 100 | C=C(C)C(=O)Nc1ccc(-c2[nH]c3cncnc3c2-c2ccc(Oc3cccc(C)n3)cc2)cc1 [Example 831] |
| ≤ 100 | < 100 | C=C(C)C(=O)Nc1ccc(-c2c(-c3ccc(Oc4cccc(C)n4)cc3)c3c(N)ncnn3c2C)cc1 [Example 836] |
| ≤ 100 | < 100 | C=CC(=O)Nc1ccc(-c2cn3ncnc(N)c3c2-c2ccc(C(=O)N3CCCCC3)cc2)cc1 [Example 837] |
| ≤ 100 | < 100 | C=CC(=O)Nc1ccc(-c2cn3ncnc(N)c3c2-c2ccc(C(=O)NCC(F)(F)F)cc2)cc1 [Example 838] |
| ≤ 100 | < 100 | C=CC(=O)N1CC(c2c(-c3ccc(Oc4cccc(C)n4)cc3)c3c(N)ncnc3n2C)C[C@@H]1C (stereo partly shown) [Example 839] |
| ≤ 100 | < 100 | C=C(C)C(=O)Nc1ccc(-c2cn3ncnc(N)c3c2-c2ccc(C(=O)N3CC4CC3C4)cc2)cc1 [Example 840] |
| 100 to 250 | 100 to 250 | C=CC(=O)N1CCC(n2cc(-c3c(-c4ccc(C(=O)N5CC6CC5C6)cc4)c4c(N)ncnc4n3C)cn2)CC1 [Example 848] |
